# Results as given in patent US11344534B2, “Cholinergic agonism for the treatment of pancreatic cancer” (priority 2017, dated 2022).
# Entries after “also recorded” stand apart in the source; their conditions may differ. Read-outs that look alike come from different tables or passages of the source.
# Key:
# [1] = tested on: Organoid cultures derived from LSL-K-Ras^G12D pancreata not treated by an Adeno-Cre virus; type: cell-based; conditions: no Adeno-Cre virus (Kras not activated)
# [2] = cited from earlier work
# [3] = tested on: Panc02 liver metastases; assay: Panc02 liver metastatic model (splenic injection, hemi-splenectomy); type: in vivo, mouse
# From the text: A metastatic mouse model of pancreatic cancer has been developed. The procedure reported by Lei Zheng has been modified and involves resecting half the spleen followed by injection 2×10^6 Panc02 (or other PDAC cell lines) into the spleen (4, 5). (FIG. 3A, B). Mice are then sacrificed 30-60 days later. […] In combination with this metastatic model of pancreatic cancer, a surgical approach to achieve selective cholinergic denervation of the liver has been developed. This involves identifying and isolating the hepatic branch of the vagal nerve, followed by resection of the hepatic branch (FIG. 3E, F).
# In additional preliminary studies, the effects of bethanechol on the progression of liver metastases and in survival were examined. […] There were 5-8 mice in each group.
# Then, it was examined whether the direct parasympathetic signal influences the metastatic lesions. The liver is a major site of metastatic spread for pancreatic cancer as well as many other solid tumors, and many patients with advanced PDAC eventually die with liver metastases. In order to investigate the role of parasympathetic signaling on the growth of liver metastasis, a well established syngeneic model of metastatic pancreatic cancer (Soares et al. 2014) was utilized. […] Moreover, to confirm that the parasympathetic pathway directly regulated tumor cells at the liver metastatic site, expression of Ki67, CD44 and pEGFR was analyzed.
# Liver metastatic model procedure was performed previously described. (Soares K C et al. 2014) Briefly, a left subcostal incision was performed along the line with the left ear and the spleen was exposed through the incision. The spleen was divided into upper and lower spleen by placing two Horizon medium size ligating clips in the center of the spleen. 150 μl of phosphate buffered saline was drawn up into a 27 G×⅝″ syringe and 100 μl of Panc02 (2×10^6) cells was also drawn up into the same syringe and the cells were injected slowly into the exposed lower-hemispleen. Lower hemisplenectomy was performed by ligating pancreas spleen vessel and cutting above.
# However, given that many PDAC patients with metastatic disease (Stage IV) eventually die with liver metastases, the effect of parasympathetic signaling on the growth of hepatic lesions was examined utilizing a well-established syngeneic model of metastatic PDAC^32. […] Moreover, to confirm that the parasympathetic pathway directly regulated tumor cells at the liver metastatic site, expression of Ki67 (FIGS. 12H-K), p-EGFR (FIGS. 12L-O) and CD44 (FIGS. 12P-S) were analyzed immunohistochemically. […]
# [4] = tested on: KC mice; assay: Vagotomized KC mice (KC+VxPP) treated with bethanechol in drinking water; type: in vivo, mouse; conditions: for pancreatic tumor (PDAC) incidence: bethanechol 400 μg/ml in drinking water, at 20 weeks; for pancreatic CD44 expression: bethanechol vs KC+VxPP controls, immunostaining
# Description: Thus, KC mice that underwent vagotomy treated with or without Bethanechol, a broad muscarinic agonist, were compared. Bethanechol treatment (400 μg/ml) started immediately after receiving surgery and continued till 20 weeks.
# K-Ras^+/LSL-G12D, p53^+/R172H, and Pdx-1-Cre mice were provided by Dr. Kenneth Olive (Columbia University). M1RKO mice were purchased from the Jackson Laboratory. KC mice and KPC mice were crossed with M1RKO mice. For several experiments, KC mice received pyloroplasty with or without vagotomy at 8 weeks and KC+VxPP mice were treated with or without bethanechol (400 μg/ml) after surgery immediately. They were sacrificed at 20 weeks. In addition, KPC mice were treated with gemcitabine biweekly and with or without bethanechol when the tumor size of 3-5 mm detected using ultrasound. They were sacrificed when the mice were moribund. For liver metastatic experiments, WT type C57/B6 mice received spleen injection and hemi-splenectomy. […] They were sacrificed when the mice were moribund.
# Bethanechol treatment (400 μg/ml in drinking water) was started in KC mice at 8 weeks, immediately after the mice received surgery, and continued until 20 weeks of age.
# LSL-Kras^+/LSL-G12D, LSL-Trp53^+/R172H, and Pdx1-Cre mice were bred by Dr. Kenneth P. Olive and co-workers. Chrm1KO mice (C57BL/6-Chrm1tm1 Stl/J, (M1RKO) mice^1 were purchased from the Jackson Laboratory. KC mice and KPC mice were crossed with M1RKO mice. In the vagotomy experiments, KC mice received pyloroplasty with or without vagotomy at 8 weeks, and some KC+VxPP mice were treated with bethanechol ([…] in drinking water) immediately after surgery and then sacrificed at 20 weeks. KPC mice in treatment studies were palpated weekly for tumors in the pancreas. Once a tumor was suspected, KPC mice were screened by VEVO 2100—Ultrasound Imaging System (FUJIFILM VisualSonics) for pancreatic cancer. KPC mice were treated with gemcitabine, given by i.p. injection 100 mg/kg biweekly, with or without bethanechol, when a tumor size of 3-5 mm was detected using ultrasound. Mice were sacrificed when the mice were moribund. NOD/SCID mice were implanted with Panc1 cells subcutaneously and sacrificed at 30 days after implantation. For liver metastatic experiments, WT type C57/B6 mice received a splenic injection of labeled Panc02 cells, followed by hemi-splenectomy. The mice were then divided into three groups. […] Mice were then sacrificed when moribund. At necropsy, hepatic metastases that could clearly be identified as tumor nodules on gross inspection were separated. All animal studies and procedures were approved by the IACUC committee at Columbia University. All mice were bred under specific pathogen free conditions. Comparisons were made with age- and sex-matched control animals.
# 5 μm paraffin embedded or PFA-fixed frozen sections were prepared for immunohistochemistry and immunofluorescence, respectively. For immunofluorescence, slides were washed with 1% Triton X-100 in PBS, rinsed and blocked for 30 min with 2% bovine serum albumin (BSA—Sigma-Aldrich). Primary antibodies and fluorophore-conjugated secondary antibodies were diluted in 2% BSA and incubated over night at 4° C. The following primary antibodies were used; Chrm1 (1:200 Santa Cruz), Ki67 (1:500 Abcam), p-EGFR (1:200 Abcam), and CD44 (1:200 BIO-RAD). For immunohistochemical staining, slides were deparaffinized in xylene and endogenous peroxidase was blocked by incubation with 3% hydrogen peroxide in methanol for visualization using the peroxidase reaction.
# [5] = tested on: CHRM1; assay: qRT-PCR of muscarinic receptor expression, human PDAC cell lines; type: cell-based; conditions: human PDAC cell lines (MiaPaca2 and Panc1), compared to control
# [6] = tested on: Kras mutant Panc1 cells; assay: Ca2+ flux in pancreatic cancer cells; type: cell-based, human; conditions: preliminary studies
# [7] = Panc02 liver metastatic model, at necropsy
# [8] = Panc02 liver metastatic model, bethanechol vs untreated control
# [9] = vagotomized KC mice, bethanechol treatment
compound,measurement,setting,value
"CC(C[N+](C)(C)C)OC(N)=O (stereo not drawn) [bethanechol, 2-[(aminocarbonyl)oxy]-N,N,N-trimethyl-1-propanaminium]",sphere forming capacity / growth of WT spheres,[1],increased
same,toxicity in treatment of xerostomia,"[2]; cancer patients, 25 mg twice daily for several months",without any severe (Grade 3) toxicity
same,side effects in treatment of xerostomia,"[2]; cancer patients, up to 50 mg three times daily and 25 mg 3 times a day",did not identify any clinically significant side effects
same,duration of action,"[2]; human, in vivo",6 h
same,interactions with gemcitabine or nab-paclitaxel,"[2]; human, in vivo",no reported interactions
same,toxicity in treatment of xerostomia,"[2]; oncology, doses up to 50 mg three times daily",without grade 3 toxicity or need for discontinuation
same,toxicity of single doses,[2]; single doses up to 200 mg,only mild cholinergic toxicity
same,(maximum) tumor volume,[3]; [7],inhibited
same,number of tumors,[3]; [7],inhibited
same,survival,"[3]; Panc02 liver metastatic model, bethanechol in drinking water, controls 29 days",41 days
same,survival (in words),[3]; [8],significantly longer; also recorded: extend; also recorded: significantly prolonged
same,tumor growth,[3]; [8],inhibited; also recorded: suppressed
same,"immunohistochemical markers: Ki67, C44, F4/80, nerves (peripherin or neurofilament), phospho-EGFR and phosphor-PI3K",[3]; after bethanechol treatment,decreased
same,"expression of Ki67, p-EGFR and CD44 in liver metastases",[3]; bethanechol group vs untreated control,significantly decreased; also recorded: suppression
same,reduction in Ki-67 staining of Panc02 liver mets,"[3]; mice, bethanechol treatment",50%
same,M1R expression,"[4]; KC mice following vagotomy, bethanechol in drinking water",reduced
same,PanIN area,"[4]; KC+VxPP mice, bethanechol 400 μg/ml in drinking water from 8 to 20 weeks, vs untreated KC+VxPP",significant reduction; also recorded: reduced
same,pancreatic tumor (PDAC) incidence,"[4]; KC+VxPP mice, vs untreated KC+VxPP",reduced; also recorded: inhibits
same,pancreatic tumor (PDAC) incidence,"[4]; KC+VxPP mice, vs untreated KC+VxPP, listed as Bethanechol",significant reduction; also recorded: significant decrease
same,pancreatic CD44 expression,[4]; KC+VxPP mice,significant decrease; also recorded: reduced
same,pancreatic CD44 expression,"[4]; KC+VxPP mice, listed as Bethanechol",reduced
same,area of inflammation,"[4]; vagotomized KC mice, bethanechol 400 μg/ml, vs KC+VxPP control group",significant reduction
same,accelerated tumorigenesis / PanIN progression after vagotomy (KC phenotype),[4]; [9],ameliorated; also recorded: suppresses; also recorded: restored the normal KC phenotype; also recorded: reduces
same,"expression of p-EGFR, p-PI3K and p-ERK1/2 (immunohistochemical staining)",[4]; [9],significantly suppressed
same,"systemic and splenic levels of TNFα, CD11b+ and F4/80+ pancreatic myeloid cells",[4]; [9],suppressed
same,tumor-associated macrophages (TAM) increased by vagal denervation,[4]; [9],abolished
same,accelerated tumorigenesis / PanIN progression after vagotomy (KC phenotype),"[4]; vagotomized KC mice, bethanechol treatment, listed as Bethanechol",abrogate; also recorded: suppressed
"CC[C@@H]1C(=O)OC[C@@H]1Cc1cncn1C [pilocarpine, (3S,4R)-3-ethyl-4-[(3-methylimidazol-4-yl)methyl]oxolan-2-one]",Chrm1 expression,[5],decreased; also recorded: lower
same,sphere forming capacity / growth of WT spheres,[1],stimulates
same,Ca2+ flux,[6],unable to stimulate
